Columns and labels:
Histone deacetylase = format: cell-based, Homo sapiens; conditions: hela
HCT-116 = test: Antiproliferative activity against human HCT-116 cells measured after 48 hrs by MTT assay; format: functional, cell-based; conditions: HCT-116, 48 h
MDA-MB-231 [1] = test: Antiproliferative activity against human MDA-MB-231 cells measured after 48 hrs by MTT assay; format: functional, cell-based; conditions: MDA-MB-231, 48 h
A549 = test: cells; format: functional, cell-based; conditions: Homo sapiens, A549, 48 h
SGC-7901 = test: Antiproliferative activity against human SGC-7901 cells measured after 48 hrs by MTT assay; format: functional, cell-based; conditions: SGC-7901, 48 h
HepG2 = test: cells; format: functional, cell-based; conditions: Homo sapiens, HepG2, 48 h
K562 = test: cells; format: functional, cell-based; conditions: Homo sapiens, K562, 48 h
Histone deacetylase 8 = molecular target: T1, Histone deacetylase 8 (Homo sapiens, UniProt Q9BY41); test: Inhibition of human full-length C-terminal His-tagged HDAC8 expressed in baculovirus infected Sf9 insect cell using fluorogenic HDAC class 2a substrate measured after 30 mins by fluorimetry
T1 sequence (Q9BY41 whole entry): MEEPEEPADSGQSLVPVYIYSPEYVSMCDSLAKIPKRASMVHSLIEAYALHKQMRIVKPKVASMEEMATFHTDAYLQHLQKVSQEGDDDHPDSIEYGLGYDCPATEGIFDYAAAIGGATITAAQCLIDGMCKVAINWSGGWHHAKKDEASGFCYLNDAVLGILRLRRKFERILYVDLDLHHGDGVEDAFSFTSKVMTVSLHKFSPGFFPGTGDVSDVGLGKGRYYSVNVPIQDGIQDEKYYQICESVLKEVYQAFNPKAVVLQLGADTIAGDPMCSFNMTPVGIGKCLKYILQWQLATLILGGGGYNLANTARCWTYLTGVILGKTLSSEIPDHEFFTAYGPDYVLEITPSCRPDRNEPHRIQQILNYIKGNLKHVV

[2] = molecular target: T2, Protein deacetylase HDAC6 (Homo sapiens, UniProt Q9UBN7); test: Inhibition of recombinant human N-terminal GST-tagged HDAC6 (1 to 1215 residues) expressed in Sf9 insect cells using fluorogenic HDAC substrate 3 measured after 30 mins by fluorimetry
T2 sequence (Q9UBN7 whole entry): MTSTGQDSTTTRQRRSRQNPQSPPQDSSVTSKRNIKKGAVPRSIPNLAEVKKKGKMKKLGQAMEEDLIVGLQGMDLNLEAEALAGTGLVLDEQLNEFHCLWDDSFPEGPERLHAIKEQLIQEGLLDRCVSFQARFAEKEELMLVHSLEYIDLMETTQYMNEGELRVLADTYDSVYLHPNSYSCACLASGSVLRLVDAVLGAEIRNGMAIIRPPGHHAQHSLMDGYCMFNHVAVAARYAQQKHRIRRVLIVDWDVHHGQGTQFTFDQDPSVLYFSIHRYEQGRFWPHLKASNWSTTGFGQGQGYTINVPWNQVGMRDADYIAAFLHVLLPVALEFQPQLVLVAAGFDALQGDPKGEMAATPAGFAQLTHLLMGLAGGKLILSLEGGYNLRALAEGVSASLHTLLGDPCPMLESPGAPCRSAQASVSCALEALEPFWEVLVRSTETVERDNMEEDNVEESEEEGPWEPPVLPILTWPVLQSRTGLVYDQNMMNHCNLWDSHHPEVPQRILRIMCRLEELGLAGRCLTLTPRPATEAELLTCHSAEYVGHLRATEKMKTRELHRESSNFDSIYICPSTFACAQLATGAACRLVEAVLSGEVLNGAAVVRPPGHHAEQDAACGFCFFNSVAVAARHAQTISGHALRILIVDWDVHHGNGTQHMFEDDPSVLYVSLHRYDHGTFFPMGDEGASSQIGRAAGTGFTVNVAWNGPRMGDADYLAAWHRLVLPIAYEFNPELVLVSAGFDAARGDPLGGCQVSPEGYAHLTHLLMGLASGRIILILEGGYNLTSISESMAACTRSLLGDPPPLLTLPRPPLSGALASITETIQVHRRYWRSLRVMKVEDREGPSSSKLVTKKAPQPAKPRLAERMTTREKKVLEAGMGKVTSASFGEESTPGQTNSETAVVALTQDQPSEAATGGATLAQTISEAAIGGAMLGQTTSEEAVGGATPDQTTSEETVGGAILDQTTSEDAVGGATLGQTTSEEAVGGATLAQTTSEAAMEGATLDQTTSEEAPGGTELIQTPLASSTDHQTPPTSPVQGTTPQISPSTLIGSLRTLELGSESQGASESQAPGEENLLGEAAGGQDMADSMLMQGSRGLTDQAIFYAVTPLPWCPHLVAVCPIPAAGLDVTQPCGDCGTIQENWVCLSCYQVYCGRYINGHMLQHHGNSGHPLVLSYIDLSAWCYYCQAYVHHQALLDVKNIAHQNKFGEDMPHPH

[3] = molecular target: Histone deacetylase 3/Nuclear receptor corepressor 2 (HDAC3/NCoR2) (Homo sapiens, UniProt O15379); test: biochemical; parameters: species or system Sf9
Histone deacetylase 1 = Histone deacetylase 1 (Homo sapiens, UniProt Q13547); test: Inhibition of recombinant human full-length C-terminal Flag-His6-tagged HDAC1 (1 to 482 residues) expressed in Sf9 insect cells using fluorogenic HDAC substrate measured after 30 mins by fluorimetry
Histone deacetylase 4 = Histone deacetylase 4 (Homo sapiens, UniProt P56524); test: Inhibition of recombinant human N-terminal GST-fused/C-terminal His-tagged HDAC4 (627 to 1084 residues) expressed in baculovirus infected Sf9 insect cells using fluorogenic HDAC class 2a substrate measured after 30 mins by fluorimetry
MDA-MB-231 [4] = test: Potency index, ratio of MS-275 IC50 to test compound IC50 for antiproliferative activity against human MDA-MB-231 cells; format: functional
MDA-MB-231 [5] = test: Potency index, ratio of SAHA IC50 to test compound IC50 for antiproliferative activity against human MDA-MB-231 cells; format: functional

Histone deacetylase 4, sequence (P56524 whole entry, the tested form may be a part): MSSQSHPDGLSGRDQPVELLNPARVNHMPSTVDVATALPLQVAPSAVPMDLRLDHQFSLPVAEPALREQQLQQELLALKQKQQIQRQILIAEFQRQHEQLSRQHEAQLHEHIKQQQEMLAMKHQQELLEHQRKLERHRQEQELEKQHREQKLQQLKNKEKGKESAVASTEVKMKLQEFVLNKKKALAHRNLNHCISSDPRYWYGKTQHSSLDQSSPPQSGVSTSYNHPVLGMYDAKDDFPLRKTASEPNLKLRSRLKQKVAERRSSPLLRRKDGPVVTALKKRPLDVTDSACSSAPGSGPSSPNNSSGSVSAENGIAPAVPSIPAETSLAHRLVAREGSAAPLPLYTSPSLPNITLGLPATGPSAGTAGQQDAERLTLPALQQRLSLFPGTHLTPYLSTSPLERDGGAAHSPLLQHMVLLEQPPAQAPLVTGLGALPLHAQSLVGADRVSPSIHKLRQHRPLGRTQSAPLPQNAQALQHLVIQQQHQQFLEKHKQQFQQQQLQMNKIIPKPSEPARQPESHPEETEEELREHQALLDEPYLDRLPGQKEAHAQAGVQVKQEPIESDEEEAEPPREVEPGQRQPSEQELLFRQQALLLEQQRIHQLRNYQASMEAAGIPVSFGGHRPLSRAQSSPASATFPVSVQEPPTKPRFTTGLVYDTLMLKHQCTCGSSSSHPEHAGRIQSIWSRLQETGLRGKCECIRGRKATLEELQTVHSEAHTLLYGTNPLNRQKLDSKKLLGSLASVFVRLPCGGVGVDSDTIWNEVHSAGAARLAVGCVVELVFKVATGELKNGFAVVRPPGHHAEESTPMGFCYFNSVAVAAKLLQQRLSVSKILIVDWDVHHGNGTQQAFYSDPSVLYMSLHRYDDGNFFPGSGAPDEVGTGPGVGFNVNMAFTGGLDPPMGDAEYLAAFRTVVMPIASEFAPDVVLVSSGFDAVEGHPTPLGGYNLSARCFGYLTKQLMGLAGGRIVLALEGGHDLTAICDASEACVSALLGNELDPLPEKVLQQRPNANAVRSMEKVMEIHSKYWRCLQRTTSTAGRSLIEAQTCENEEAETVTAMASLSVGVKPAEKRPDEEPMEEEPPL
Histone deacetylase 1, sequence (Q13547 whole entry, the tested form may be a part): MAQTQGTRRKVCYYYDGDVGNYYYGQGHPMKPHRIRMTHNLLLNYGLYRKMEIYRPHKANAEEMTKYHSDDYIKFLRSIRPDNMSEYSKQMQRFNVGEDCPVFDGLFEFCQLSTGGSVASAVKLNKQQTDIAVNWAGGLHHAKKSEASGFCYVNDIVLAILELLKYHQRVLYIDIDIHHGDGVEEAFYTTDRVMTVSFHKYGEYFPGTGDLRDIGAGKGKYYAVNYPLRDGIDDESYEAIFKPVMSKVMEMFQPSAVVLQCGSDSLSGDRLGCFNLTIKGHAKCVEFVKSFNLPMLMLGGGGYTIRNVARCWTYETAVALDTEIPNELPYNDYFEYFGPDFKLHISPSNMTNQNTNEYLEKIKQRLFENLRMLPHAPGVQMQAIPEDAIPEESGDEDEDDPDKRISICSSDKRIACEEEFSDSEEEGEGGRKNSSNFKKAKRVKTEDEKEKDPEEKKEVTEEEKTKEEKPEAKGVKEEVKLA
Histone deacetylase 3/Nuclear receptor corepressor 2 (HDAC3/NCoR2), sequence (O15379 whole entry, the tested form may be a part): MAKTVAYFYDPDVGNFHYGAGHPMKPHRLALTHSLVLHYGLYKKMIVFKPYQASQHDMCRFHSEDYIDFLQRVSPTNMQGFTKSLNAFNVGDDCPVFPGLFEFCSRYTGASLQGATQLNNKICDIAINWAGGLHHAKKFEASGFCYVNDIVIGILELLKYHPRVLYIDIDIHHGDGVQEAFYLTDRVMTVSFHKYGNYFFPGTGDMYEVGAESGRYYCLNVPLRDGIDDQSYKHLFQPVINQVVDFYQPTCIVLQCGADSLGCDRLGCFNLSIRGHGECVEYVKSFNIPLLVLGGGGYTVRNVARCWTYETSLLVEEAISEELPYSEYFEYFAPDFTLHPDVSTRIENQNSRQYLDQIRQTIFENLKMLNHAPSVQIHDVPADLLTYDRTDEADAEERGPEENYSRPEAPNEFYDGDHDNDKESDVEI
Histone deacetylase 3/Nuclear receptor corepressor 2 (HDAC3/NCoR2), sequence (Q9Y618 whole entry, further chain, the tested form may be a part): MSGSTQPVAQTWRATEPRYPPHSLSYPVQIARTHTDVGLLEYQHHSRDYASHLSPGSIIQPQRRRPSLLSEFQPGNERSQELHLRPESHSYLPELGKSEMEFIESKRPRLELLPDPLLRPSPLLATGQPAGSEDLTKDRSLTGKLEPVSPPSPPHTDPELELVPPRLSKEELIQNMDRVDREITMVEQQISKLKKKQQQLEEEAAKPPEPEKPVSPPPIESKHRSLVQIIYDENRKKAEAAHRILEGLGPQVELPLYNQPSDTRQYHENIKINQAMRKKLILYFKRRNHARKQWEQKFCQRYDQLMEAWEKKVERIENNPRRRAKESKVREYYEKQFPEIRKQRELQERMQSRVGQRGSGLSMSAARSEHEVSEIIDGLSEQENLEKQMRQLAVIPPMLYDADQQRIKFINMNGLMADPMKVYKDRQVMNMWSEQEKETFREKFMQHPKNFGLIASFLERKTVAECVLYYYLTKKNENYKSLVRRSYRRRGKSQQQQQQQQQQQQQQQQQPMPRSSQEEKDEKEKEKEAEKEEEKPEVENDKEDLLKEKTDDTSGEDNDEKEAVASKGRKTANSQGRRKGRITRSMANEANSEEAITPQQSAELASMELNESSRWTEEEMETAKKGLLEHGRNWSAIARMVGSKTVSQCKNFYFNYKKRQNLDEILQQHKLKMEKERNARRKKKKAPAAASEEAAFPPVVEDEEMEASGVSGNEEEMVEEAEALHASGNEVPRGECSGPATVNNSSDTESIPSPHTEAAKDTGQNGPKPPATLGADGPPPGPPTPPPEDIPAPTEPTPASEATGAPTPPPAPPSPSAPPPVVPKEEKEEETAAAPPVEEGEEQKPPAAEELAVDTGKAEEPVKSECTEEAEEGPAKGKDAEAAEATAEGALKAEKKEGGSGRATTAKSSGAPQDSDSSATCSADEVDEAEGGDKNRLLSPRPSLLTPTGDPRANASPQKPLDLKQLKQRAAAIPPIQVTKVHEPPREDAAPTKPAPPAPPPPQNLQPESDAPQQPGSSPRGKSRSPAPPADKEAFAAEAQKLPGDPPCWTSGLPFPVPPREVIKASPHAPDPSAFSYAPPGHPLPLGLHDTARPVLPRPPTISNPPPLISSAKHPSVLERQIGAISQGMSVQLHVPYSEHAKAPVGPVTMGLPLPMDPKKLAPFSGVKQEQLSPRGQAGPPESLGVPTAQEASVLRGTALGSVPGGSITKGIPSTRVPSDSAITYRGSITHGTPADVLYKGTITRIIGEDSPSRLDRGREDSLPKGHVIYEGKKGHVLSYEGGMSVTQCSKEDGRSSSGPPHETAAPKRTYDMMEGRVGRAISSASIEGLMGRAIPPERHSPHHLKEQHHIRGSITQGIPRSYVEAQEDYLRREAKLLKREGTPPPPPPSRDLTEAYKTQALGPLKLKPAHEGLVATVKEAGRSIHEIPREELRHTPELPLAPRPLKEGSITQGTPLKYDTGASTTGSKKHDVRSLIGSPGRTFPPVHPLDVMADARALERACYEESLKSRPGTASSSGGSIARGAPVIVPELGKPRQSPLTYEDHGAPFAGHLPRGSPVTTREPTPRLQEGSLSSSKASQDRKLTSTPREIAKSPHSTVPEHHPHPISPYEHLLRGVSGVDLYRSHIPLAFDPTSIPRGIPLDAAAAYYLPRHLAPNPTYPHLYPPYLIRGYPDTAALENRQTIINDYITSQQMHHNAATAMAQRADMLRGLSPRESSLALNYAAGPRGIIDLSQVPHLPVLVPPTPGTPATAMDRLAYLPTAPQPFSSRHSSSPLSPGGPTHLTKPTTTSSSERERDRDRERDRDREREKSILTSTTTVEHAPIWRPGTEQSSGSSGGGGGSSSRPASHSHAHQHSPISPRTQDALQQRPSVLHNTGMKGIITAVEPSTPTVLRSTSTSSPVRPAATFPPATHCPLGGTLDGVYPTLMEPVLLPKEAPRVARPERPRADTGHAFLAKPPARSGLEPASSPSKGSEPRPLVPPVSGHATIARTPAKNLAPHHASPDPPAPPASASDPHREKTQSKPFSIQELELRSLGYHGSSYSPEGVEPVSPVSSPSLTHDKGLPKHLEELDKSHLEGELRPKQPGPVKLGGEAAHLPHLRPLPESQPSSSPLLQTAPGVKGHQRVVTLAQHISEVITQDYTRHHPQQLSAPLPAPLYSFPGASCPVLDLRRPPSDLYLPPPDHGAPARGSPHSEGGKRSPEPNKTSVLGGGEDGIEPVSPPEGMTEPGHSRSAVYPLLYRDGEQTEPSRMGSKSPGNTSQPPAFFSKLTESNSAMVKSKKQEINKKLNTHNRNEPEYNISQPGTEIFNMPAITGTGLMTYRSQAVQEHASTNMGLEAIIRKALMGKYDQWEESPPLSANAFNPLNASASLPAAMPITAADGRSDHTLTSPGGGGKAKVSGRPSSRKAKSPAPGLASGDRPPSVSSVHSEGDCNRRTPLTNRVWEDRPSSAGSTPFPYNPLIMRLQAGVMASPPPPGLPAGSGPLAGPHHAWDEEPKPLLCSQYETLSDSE

Row | Structure (SMILES) | IC50 (Histone deacetylase) [µM] | IC50 (HCT-116) [µM] | IC50 (A549) [µM] | IC50 (SGC-7901) [µM] | further results
1 | CCCNc1nc(Cl)nc2c1ncn2CCCC(=O)NCc1ccc(C(=O)Nc2ccccc2N)cc1 | 1.26 | 21.5 | 514 | 21.1 | IC50 (MDA-MB-231 [1]): 28.4 µM
2 | CCCCNc1nc(Cl)nc2c1ncn2CCCC(=O)NCc1ccc(C(=O)Nc2ccccc2N)cc1 | 0.95 | 11.2 | 165 | 64.1 | IC50 (MDA-MB-231 [1]): 5.64 µM
3 | CNc1nc(Cl)nc2c1ncn2Cc1ccc(C(=O)Nc2ccc(F)cc2N)cc1 | 1.73 | – | – | – | –
4 | CCNc1nc(Cl)nc2c1ncn2Cc1ccc(C(=O)Nc2ccc(Br)cc2N)cc1 | 10.33 | – | – | – | –
5 | CNc1nc(Cl)nc2c1ncn2CCCC(=O)NCc1ccc(C(=O)Nc2ccccc2N)cc1 | 5.02 | 87.1 | 97 | 27 | IC50 (MDA-MB-231 [1]): 15.5 µM
6 | CCCCNc1nc(Cl)nc2c1ncn2Cc1ccc(C(=O)Nc2ccc(F)cc2N)cc1 | 1.28 | – | – | – | –
7 | CCNc1nc(Cl)nc2c1ncn2Cc1ccc(C(=O)Nc2ccc(F)cc2N)cc1 | 5.77 | – | – | – | –
8 | Nc1ccccc1NC(=O)c1ccc(CNC(=O)OCc2cccnc2)cc1 [ENTINOSTAT] | – | 2.48 | 1.48 | 0.98 | IC50 (HepG2): 1.76 µM; IC50 (K562): 1.19 µM
9 | Cc1ccc(NC(=O)c2ccc(Cn3cnc4c(Cl)nc(Cl)nc43)cc2)c(N)c1 | 25.04 | – | – | – | –
10 | CCN(CC)c1nc(Cl)nc2c1ncn2Cc1ccc(C(=O)Nc2ccc(Br)cc2N)cc1 | 3.11 | – | – | – | –
11 | CCCCCNc1nc(Cl)nc2c1ncn2Cc1ccc(C(=O)Nc2ccc(F)cc2N)cc1 | 2.86 | – | – | – | –
12 | CNc1nc(Cl)nc2c1ncn2Cc1ccc(C(=O)Nc2ccc(C)cc2N)cc1 | 1.98 | – | – | – | –
13 | CCCNc1nc(Cl)nc2c1ncn2Cc1ccc(C(=O)Nc2ccc(C)cc2N)cc1 | 3.13 | – | – | – | –
14 | CCCCNc1nc(Cl)nc2c1ncn2Cc1ccc(C(=O)Nc2ccc(C)cc2N)cc1 | 1.01 | – | – | – | –
15 | CCNc1nc(Cl)nc2c1ncn2Cc1ccc(C(=O)Nc2ccc(C)cc2N)cc1 | 5.57 | – | – | – | –
16 | CNc1nc(Cl)nc2c1ncn2Cc1ccc(C(=O)Nc2ccc(Br)cc2N)cc1 | 2.16 | – | – | – | –

Row | Structure (SMILES) | IC50 (Histone deacetylase) [µM] | IC50 (HCT-116) [µM] | IC50 (A549) [µM] | IC50 (SGC-7901) [µM] | further results
17 | Nc1cc(F)ccc1NC(=O)c1ccc(Cn2cnc3c(Cl)nc(Cl)nc32)cc1 | 2.64 | – | – | – | –
18 | CCN(CC)c1nc(Cl)nc2c1ncn2Cc1ccc(C(=O)Nc2ccc(C)cc2N)cc1 | 4.33 | – | – | – | –
19 | CCNc1nc(Cl)nc2c1ncn2CCCC(=O)NCc1ccc(C(=O)Nc2ccccc2N)cc1 | 2.31 | 90.8 | 149 | 56.8 | IC50 (MDA-MB-231 [1]): 17.5 µM
20 | CCCNc1nc(Cl)nc2c1ncn2Cc1ccc(C(=O)Nc2ccc(F)cc2N)cc1 | 4.41 | – | – | – | –
21 | CCNc1nc(Cl)nc2c1ncn2Cc1ccc(C(=O)Nc2ccccc2N)cc1 | 1.64 | 1.53 | 0.86 | 0.99 | IC50 (Histone deacetylase 8): 2.37 µM; IC50 [2]: 31.7 µM; IC50 [3]: 1.07 µM; IC50 (Histone deacetylase 1): 0.0935 µM; IC50 (Histone deacetylase 4): > 100 µM; IC50 (MDA-MB-231 [1]): 0.06 µM; IC50 (HepG2): 0.16 µM; IC50 (K562): 2.89 µM; Ratio IC50 (MDA-MB-231 [4]): 4; Ratio IC50 (MDA-MB-231 [5]): 4
22 | CCCNc1nc(Cl)nc2c1ncn2Cc1ccc(C(=O)Nc2ccc(Br)cc2N)cc1 | 9.26 | – | – | – | –
23 | Nc1cc(Br)ccc1NC(=O)c1ccc(Cn2cnc3c(Cl)nc(Cl)nc32)cc1 | 9.1 | – | – | – | –
24 | CCCCCNc1nc(Cl)nc2c1ncn2Cc1ccc(C(=O)Nc2ccc(C)cc2N)cc1 | 2.03 | – | – | – | –
25 | CCN(CC)c1nc(Cl)nc2c1ncn2Cc1ccc(C(=O)Nc2ccc(F)cc2N)cc1 | 4.24 | – | – | – | –
26 | CCCCCNc1nc(Cl)nc2c1ncn2Cc1ccc(C(=O)Nc2ccc(Br)cc2N)cc1 | 18.68 | – | – | – | –
27 | CCCCCNc1nc(Cl)nc2c1ncn2CCCC(=O)NCc1ccc(C(=O)Nc2ccccc2N)cc1 | 3.43 | 14.4 | 177 | 19.6 | IC50 (MDA-MB-231 [1]): 9.68 µM
28 | CCN(CC)c1nc(Cl)nc2c1ncn2CCCC(=O)NCc1ccc(C(=O)Nc2ccccc2N)cc1 | 3.91 | 20.6 | 392 | 59.9 | IC50 (MDA-MB-231 [1]): 11.1 µM
29 | CNc1nc(Cl)nc2c1ncn2Cc1ccc(C(=O)Nc2ccccc2N)cc1 | 1.48 | 1.67 | 0.86 | 5.16 | IC50 (Histone deacetylase 8): 1.02 µM; IC50 [2]: 21.8 µM; IC50 [3]: 1.77 µM; IC50 (Histone deacetylase 1): 0.0774 µM; IC50 (Histone deacetylase 4): > 100 µM; IC50 (MDA-MB-231 [1]): 0.24 µM; IC50 (HepG2): 2.29 µM; IC50 (K562): 0.023 µM; Ratio IC50 (MDA-MB-231 [4]): 4; Ratio IC50 (MDA-MB-231 [5]): 4
30 | CCCNc1nc(Cl)nc2c1ncn2Cc1ccc(C(=O)Nc2ccccc2N)cc1 | 0.574 | 5.5 | 0.8 | 1.99 | IC50 (Histone deacetylase 8): 1.88 µM; IC50 [2]: 43.7 µM; IC50 [3]: 1.36 µM; IC50 (Histone deacetylase 1): 0.309 µM; IC50 (Histone deacetylase 4): > 100 µM; IC50 (MDA-MB-231 [1]): 0.05 µM; IC50 (HepG2): 0.12 µM; IC50 (K562): 5.43 µM; Ratio IC50 (MDA-MB-231 [4]): 4; Ratio IC50 (MDA-MB-231 [5]): 4
31 | CCCCNc1nc(Cl)nc2c1ncn2Cc1ccc(C(=O)Nc2ccc(Br)cc2N)cc1 | 2.04 | – | – | – | –
32 | Cc1ccc(Nc2nc(Cl)nc3c2ncn3CCCCCCCC(=O)NO)cc1 | 0.0153 | – | – | – | –
